# In patent publication US7659104B2, “Solvent tolerant microorganisms and methods of isolation” (E.I. du Pont de Nemours and Company, priority 2006, dated 2010):
# How the values were obtained:
# [1] = test system: Lactobacillus paracasei overexpressing GroESL; settings: Desmond et al.; equals 0.4% w/v; cited from earlier work
# [2] = test system: most microorganisms described in the art; settings: liquid medium; 37° C.; cited from earlier work
# [3] = test system: isolates from the enrichments; settings: 37° C., microtiter plate
# Method: (§1) Pure strains of 1-butanol resistant bacteria were isolated from the enrichment cultures as follows. The cells grown in an enrichment culture containing 1.2% or 1.6% 1-butanol were serially diluted, and the serial dilutions were plated on Luria Bertani (LB) agar medium, modified LB agar (i.e., LB agar supplemented with 0.5% sucrose, 0.5% glucose, 0.5% fructose, 0.5% sodium pyruvate, 2 mM MgCl2, 0.7 mM CaCl2, 50 μM MnCl2, 1 μM FeCl3, 1 μM ZnCl2, 1.72 μM CuCl2, 2.53 μM CoCl2, 2.42 μM Na2MoO4 and 2 μM thiamine hydrochloride) or minimal enrichment medium with 2.0% Difco™ Agar Noble, (BD Diagnostic Systems, Sparks, Md.), all without 1-butanol. Colonies were then inoculated from the agar medium into minimal enrichment medium (described above) without 1-butanol in the wells of a microtiter plate. […] The growth was monitored (by OD600) of isolates cultured in S30L medium (i.e., 10 mM ammonium sulfate, 5 mM potassium phosphate buffer, pH 7.0, 50 mM MOPS, pH 7.0, 2 mM MgCl2, 0.7 mM CaCl2, 50 μM MnCl2, 1 μM FeCl3, 1 μM ZnCl2, 1.72 μM CuCl2, 2.53 μM CoCl2, 2.42 μM Na2MoO4, 2 μM thiamine hydrochloride, 0.01 M glucose, and 0.2% yeast extract) at 37° C. in the absence (control) and in the presence of from 1.2% to 3.0% w/v of 1-butanol and the doubling time for each culture was calculated from the logarithmic part of the growth curve (doubling time=0.693/growth rate).
# [4] = test system: PN0110 (Enterococcus faecium); settings: 37° C.
# Method: as §1
# [5] = test system: enrichment cultures from environmental sludge samples; settings: 37° C.
# Method: Environmental sludge samples were obtained from wastewater treatment facilities at several E.I. du Pont de Nemours and Company sites. Enrichment cultures were established for each sample by inoculating a 125-mL screw cap Erlenmeyer flask with 1 mL of a sludge sample in 10 mL of minimal enrichment medium (i.e., 10 mM ammonium sulfate, 50 mM potassium phosphate buffer, pH 7.0, 2 mM MgCl2, 0.7 mM CaCl2, 50 μM MnCl2, 1 μM FeCl3, 1 μM ZnCl2, 1.72 μM CuCl2, 2.53 μM CoCl2, 2.42 μM Na2MoO4, 2 μM thiamine hydrochloride, 0.5% glucose, 0.5% fructose, 0.5% sucrose and 0.1% yeast extract). The enrichment cultures were incubated at 37° C. with shaking. After 24 h of incubation, the enrichment cultures were diluted 1:10 into fresh medium that contained 0.8%, 1.2% or 1.6% w/v 1-butanol (Sigma Chemical Co.; molecular biology grade (greater than or equal to 99% purity)). Incubation continued under the same conditions. Cultures with the highest level of 1-butanol allowing significant growth (e.g., a culture with an initial OD600 of approximately 0.1 that increased within 24 to 48 h to an OD600 of approximately 1.0) were then diluted 1:10 into fresh medium that contained higher levels of 1-butanol to select for increased tolerance to 1-butanol.
# [6] = test system: isolates listed in Table 5 (PN0048, PN0197-10, PN0133); assay: Growth on solid medium (S20 agar replica plating), isolates listed in Table 5; assay type: cell-based, Enterococcus; settings: 37° C., 24 to 72 h
# Method: Phylogenetic characterization of the microbial consortium in the anaerobic bioreactor and isolation of pure strains of 1-butanol resistant bacteria from this bioreactor were performed as follows. Samples of cells taken from the bioreactor at various times and from the bioreactor waste jug were serially diluted, and the serial dilutions were plated on S20 agar medium (S20 medium with 1.6% DifCo™ Agar, Noble-Solidifying agent) without 1-butanol. Colonies were then inoculated from the S20 agar medium into 1.2 mL of S20 medium without 1-butanol in the wells of a square-well microtiter plate (Beckman Coulter Inc, Fullerton, Calif.; Catalog No. 069681). […] Butanol tolerance was determined by growth in the presence of 1-butanol as determined by measuring increases in optical density at 595 nm (OD595) on a microtiter plate reader (HTS 7000 Plus Bio Assay Reader, PerkinElmer Life and Analytical Sciences Inc., Wellesley, Mass.). Isolates that had OD595 readings in the range of 0.1 to 0.8 after growth for 48 h at 37° C. with shaking were selected for further tolerance testing. […] The IC50 values of the isolated strains were determined at 37° C., for 1-butanol, 2-butanol, isobutanol, 2-butanone (also called methyl ethyl ketone (MEK)) and ethanol, following the method described in Example 1.
# [7] = test system: Lactococcus lactis overexpressing GroESL; settings: Desmond et al.; equals 0.4% w/v; cited from earlier work
# [8] = liquid minimal enrichment medium, shaking
compound,measurement,setting,value
CCCCO [1-butanol],concentration in whose presence strains were able to grow,[1],0.5 % volume/volume (v/v)
same,concentration at which growth is totally inhibited,[2],less than 2.0 % w/v
same,concentration in liquid medium at which several isolates displayed growth,[3],at least 2.0%
same,concentration in solid medium on which the strain was able to grow,[4],2.5 % w/v
same,concentration in whose presence none of the enrichment cultures grew,[5]; liquid medium,2.0%
same,concentration in whose presence enrichment cultures from some sites grew,[5]; [8],1.6%
same,concentration in whose presence most of the enrichment cultures grew,[5]; [8],1.2%
same,concentration on solid medium at which isolates displayed growth,[6],≥ 2.5%
same,concentration in whose presence strains were able to grow,[7],0.5 % volume/volume (v/v)
